# Test results as given in patent US11912793B2, “Polypeptide and application thereof in bone repair” (SICHUAN UNIVERSITY, priority 2022, dated 2024).
# Legend:
# calvarial defects = assay: Calvarial defect implantation of polypeptide-modified GelMA, H&E and Goldner's trichrome staining; type: in vivo, SD male rats; conditions: GelMA scaffold with peptide 0.1 mg/mL, 5 mm calvarial defect, 4 weeks post-implantation
# Procedure: • 2.1 GelMA Preparation: gelatin was fully dissolved in phosphate-buffered saline (PBS) at 60° C. with a concentration of 10% (w/v). […] Double PBS was added to the mixture to stop the reaction. The solution was dialyzed against distilled water using 12-14 kDa dialysis tubing for 1 week. The obtained GelMA solution was frozen at −20° C. overnight and lyophilized for 72 h to get sponge GelMA. • 2.2 Polypeptide modification: 2 g lyophilized GelMA was dissolved in 10 mL PBS containing 0.1% (w/v) photoinitiator LAP at 60° C. Then, either a control peptide or GS18 was added to achieve a final concentration of 0.1 mg/mL. The above mixture was injected into the mold (20 μL/hole) and exposed to ultraviolet irradiation (6.9 W/cm^2, 360-489 nm) for 2 min at room temperature. Once solidified, the materials were carefully detached from the mold and placed on ice for use. • 2.3 Result verification: photographs were captured to depict the morphological characteristics of the polypeptide-modified GelMA after it was separated from the mold.
# • 3.1 Sample preparation: the GelMA scaffold was utilized to encapsulate either GS18 or control peptide at a concentration of 0.1 mg/mL, resulting in a total volume of 0.02 cm^3. • 3.2 Animal model: 12-week-old SD male rats (about 320±20 g each) were used. Each group contained 3 rats. Rats were anesthetized with 2% pentobarbital via abdominal injection. The rats were positioned in the prone position. An electric razor was utilized to remove fur from the cranial region. Following this, the surgical sites were thoroughly cleansed with iodophor for disinfection. To maintain a sterile condition, disposable towels were carefully placed over the surgical regions. Starting from the nasal bone, a longitudinal skin incision of 1.5-2.0 cm was made along the midline of the top of the head. The subcutaneous tissue was gently separated with the handle of a surgical knife. The periosteum was meticulously incised along the sagittal suture of the cranium and subsequently separated to fully expose the parietal bone, occipital bone, and part of the frontal bone. Bilateral full-thickness circular calvarial defects (diameter=5 mm) were generated using a trephine. Sterilized materials were implanted into the defect sites. The experimental group was implanted with GS18-modified GelMA, While the control group was implanted with control peptide-modified GelMA. Finally, the skin was reset, sutured, and disinfected. • 3.3 Tissue slices: after 4 weeks, the rats were sacrificed. […] The paraffin tissue slices were heated at 65° C., dewaxed, hydrated with xylene and gradient ethanol, and stained with H&E and Goldner's trichrome staining for histological evaluation.
# [1] = system: osteogenesis-oriented BMSCs (pre-osteoblasts); assay: In vitro osteogenic differentiation, Von kossa staining; type: cell-based, C57BL/6 male mice; conditions: 5 days OM pretreatment, then 14 days peptide-containing OM, compared with the control peptide
# Procedure: • 1.1 Cell culture: primary bone mesenchymal stem cells (BMSCs) extracted from the long bones of 3-week-old C57BL/6 male mice were selected, cultured at 37° C. in a humidified atmosphere with 5% CO2, and inoculated into a 24-well plate with 30000 cells/well. α-MEM supplemented with 5% FBS, 1% penicillin-streptomycin, […], 10 mM β-glycerophosphate, and 50 μg/mL L-ascorbic acid was used as the osteogenic medium (OM) for osteogenic induction. • 1.2 Cell induction: BMSCs were pretreated with OM for 5 days to achieve a determined osteogenic precursor cell state, followed by ongoing induction with peptide-containing OM for another 14 days. The experimental group used OM added with GS18, and the control group used OM added with the control peptide. GS18 was synthesized using a solid-phase polypeptide synthesis and was purified by HPLC (purity=96.59%). The amino acid sequence of the control peptide was shown as SEQ ID NO: 2, i.e. CKPLRLSKEEHPLK. The control peptide also adopted a solid-phase polypeptide synthesis method and used HPLC to purify products (purity=96.15%). […] The integrated density of calcium nodes (IntDen) and the percent of the calcified area to the total area (Area %) from five random areas were measured by Fiji. **p<0.01.
# Wnt/β-catenin pathway = assay: Immunofluorescence staining of active β-catenin and osteocalcin in calvarial defects; type: in vivo, SD male rats; conditions: 4 weeks after implantation
# Procedure: • 3.1 Sample preparation: the GelMA scaffold was utilized to encapsulate either GS18 or control peptide at a concentration of 0.1 mg/mL, resulting in a total volume of 0.02 cm^3. • 3.2 Animal model: 12-week-old SD male rats (about 320±20 g each) were used. Each group contained 3 rats. Rats were anesthetized with 2% pentobarbital via abdominal injection. The rats were positioned in the prone position. An electric razor was utilized to remove fur from the cranial region. Following this, the surgical sites were thoroughly cleansed with iodophor for disinfection. To maintain a sterile condition, disposable towels were carefully placed over the surgical regions. Starting from the nasal bone, a longitudinal skin incision of 1.5-2.0 cm was made along the midline of the top of the head. The subcutaneous tissue was gently separated with the handle of a surgical knife. […]
# • 4.1 Antigen repair: the paraffin slices prepared in Embodiment 3.3 were heated at 65° C., dewaxed, hydrated with xylene and gradient ethanol, and immersed in the antigen repair buffer at 100° C. for 40 min. […] Subsequently, the sections were washed with PBS three times for 15 min each time and sealed by the anti-fluorescence quencher. • 4.3 Result verification: images of immunofluorescence staining were acquired using a confocal laser scanning microscope (CLSM, FV3000, Olympus, Japan).
Sequence,Goldner's trichrome staining: cellular growth / cell infiltration in the defect (FIG. 4) (calvarial defects),H&E staining: cellular growth / cell recruitment in the defect (FIG. 3) (calvarial defects),formation of calcium deposits of pre-osteoblasts (FIG. 1B) [1],maturation of calcium deposits of pre-osteoblasts (FIG. 1C) [1],H&E staining: fiber mineralization in the defect (FIG. 3) (calvarial defects),expression of Ocn in the defect area (FIG. 5) (Wnt/β-catenin pathway),expression of active β-Catenin in newly formed tissues of the calvarial defects (FIG. 5) (Wnt/β-catenin pathway; compared to non-peptide-modified GelMA)
"CKPLRLSKEEHPLK (The sequence is synthetized) [control peptide, control peptide made by solid-phase polypeptide synthesis, reference compound]",conspicuous paucity of cellular growth within the central region of the defect,noticeable lack of cellular growth in the central region of the defect,,,,,
GPGGDKCRCVFHWVCCYVS (GPGGDKCRCVFHWCCYVS; The sequence is synthetized) [GS18],,capacity to attract and recruit cells into the scaffolds,significantly increased,significantly increased,high degree of fiber mineralization,robust and widespread,significantly enhanced
